How the values were obtained:
[1] = system: HCT-116; assay: NCI in vitro DTP human cell line screen, HCT-116; assay type: cell-based; settings: Colon Cancer, 1.00E−5 Molar
Procedure: (§1) Then, a cell toxicity assay of the cancer lines made by National Cancer Institute will be discussed as follows. The cell toxicity assay is performed by choosing ten compounds (existing certification numbers) from the 59 compounds disclosed in the present invention first.

[2] = system: K562; assay: NCI in vitro DTP human cell line screen, K562; assay type: cell-based; settings: Leukemia, 1.00E−5 Molar
Procedure: as §1

[3] = system: CAKI-1; assay: NCI in vitro DTP human cell line screen, CAKI-1; assay type: cell-based; settings: Renal Cancer, 1.00E−5 Molar
Procedure: as §1

[4] = system: UACC-62; assay: NCI in vitro DTP human cell line screen, UACC-62; assay type: cell-based; settings: Melanoma, 1.00E−5 Molar
Procedure: as §1

[5] = system: UO-31; assay: NCI in vitro DTP human cell line screen, UO-31; assay type: cell-based; settings: Renal Cancer, 1.00E−5 Molar
Procedure: as §1

[6] = system: A3 cell lines; assay: MTT assay, A3 cell lines (lung cancer stem cell); assay type: cell-based
Excerpt: Please to FIG. 4B, various cell viabilities of the A3 cell lines can be obtained through the MTT assay and illustrated in FIG. 4B while the compounds No. 1˜30 are used to treat A3 cell lines, wherein A3 cell lines are lung cancer stem cell.

[7] = system: SR; assay: NCI in vitro DTP human cell line screen, SR; assay type: cell-based; settings: Leukemia, 1.00E−5 Molar
Procedure: as §1

[8] = system: SN12C; assay: NCI in vitro DTP human cell line screen, SN12C; assay type: cell-based; settings: Renal Cancer, 1.00E−5 Molar
Procedure: as §1

[9] = system: OVCAR-4; assay: NCI in vitro DTP human cell line screen, OVCAR-4; assay type: cell-based; settings: Ovarian Cancer, 1.00E−5 Molar
Procedure: as §1

[10] = system: U251; assay: NCI in vitro DTP human cell line screen, U251; assay type: cell-based; settings: CNS Cancer, 1.00E−5 Molar
Procedure: as §1

[11] = system: RPMI-8226; assay: NCI in vitro DTP human cell line screen, RPMI-8226; assay type: cell-based; settings: Leukemia, 1.00E−5 Molar
Procedure: as §1

[12] = system: OVCAR-8; assay: NCI in vitro DTP human cell line screen, OVCAR-8; assay type: cell-based; settings: Ovarian Cancer, 1.00E−5 Molar
Procedure: as §1

[13] = system: CCRF-CEM; assay: NCI in vitro DTP human cell line screen, CCRF-CEM; assay type: cell-based; settings: Leukemia, 1.00E−5 Molar
Procedure: as §1

[14] = system: SF-295; assay: NCI in vitro DTP human cell line screen, SF-295; assay type: cell-based; settings: CNS Cancer, 1.00E−5 Molar
Procedure: as §1

[15] = system: UACC-257; assay: NCI in vitro DTP human cell line screen, UACC-257; assay type: cell-based; settings: Melanoma, 1.00E−5 Molar
Procedure: as §1

[16] = system: A control cell lines; assay: MTT assay, A control cell lines (lung cancer cell); assay type: cell-based
Excerpt: Please refer to Table 1 and FIGS. 4A-4C. According to a MTT assay (Table 1), various cell viabilities of the A control cell lines can be obtained and illustrated in FIG. 4A while the compounds No. 2˜30 are used to treat A control cell lines, wherein A control cell lines are lung cancer cell.

[17] = system: SK-OV-3; assay: NCI in vitro DTP human cell line screen, SK-OV-3; assay type: cell-based; settings: Ovarian Cancer, 1.00E−5 Molar
Procedure: as §1

[18] = system: EKVX; assay: NCI in vitro DTP human cell line screen, EKVX; assay type: cell-based; settings: Non-Small Cell Lung Cancer, 1.00E−5 Molar
Procedure: as §1

[19] = system: HCC-2998; assay: NCI in vitro DTP human cell line screen, HCC-2998; assay type: cell-based; settings: Colon Cancer, 1.00E−5 Molar
Procedure: as §1

[20] = system: RXF 393; assay: NCI in vitro DTP human cell line screen, RXF 393; assay type: cell-based; settings: Renal Cancer, 1.00E−5 Molar
Procedure: as §1

[21] = system: KM12; assay: NCI in vitro DTP human cell line screen, KM12; assay type: cell-based; settings: Colon Cancer, 1.00E−5 Molar
Procedure: as §1

[22] = system: DU145; assay: NCI in vitro DTP human cell line screen, DU145; assay type: cell-based; settings: Prostate Cancer, 1.00E−5 Molar
Procedure: as §1

[23] = system: BT-549; assay: NCI in vitro DTP human cell line screen, BT-549; assay type: cell-based; settings: Breast Cancer, 1.00E−5 Molar
Procedure: as §1

[24] = system: COLO 205; assay: NCI in vitro DTP human cell line screen, COLO 205; assay type: cell-based; settings: Colon Cancer, 1.00E−5 Molar
Procedure: as §1

[25] = system: HOP-92; assay: NCI in vitro DTP human cell line screen, HOP-92; assay type: cell-based; settings: Non-Small Cell Lung Cancer, 1.00E−5 Molar
Procedure: as §1

[26] = MTT assay, HEL299 fibroblast; assay type: cell-based; settings: human
Excerpt: Please refer to FIG. 4C, various cell viabilities of the HEL299 cell lines can be obtained through the MTT assay while the compounds No. 1˜30 are used to treat HEL299 cell lines, wherein HEL299 cell lines are fibroblast.

[27] = system: SW-620; assay: NCI in vitro DTP human cell line screen, SW-620; assay type: cell-based; settings: Colon Cancer, 1.00E−5 Molar
Procedure: as §1

[28] = system: SK-MEL-28; assay: NCI in vitro DTP human cell line screen, SK-MEL-28; assay type: cell-based; settings: Melanoma, 1.00E−5 Molar
Procedure: as §1

[29] = system: NCI-H226; assay: NCI in vitro DTP human cell line screen, NCI-H226; assay type: cell-based; settings: Non-Small Cell Lung Cancer, 1.00E−5 Molar
Procedure: as §1

[30] = system: MDA-MB-435; assay: NCI in vitro DTP human cell line screen, MDA-MB-435; assay type: cell-based; settings: Melanoma, 1.00E−5 Molar
Procedure: as §1

[31] = system: MOLT-4; assay: NCI in vitro DTP human cell line screen, MOLT-4; assay type: cell-based; settings: Leukemia, 1.00E−5 Molar
Procedure: as §1

[32] = system: SF-268; assay: NCI in vitro DTP human cell line screen, SF-268; assay type: cell-based; settings: CNS Cancer, 1.00E−5 Molar
Procedure: as §1

[33] = system: SK-MEL-5; assay: NCI in vitro DTP human cell line screen, SK-MEL-5; assay type: cell-based; settings: Melanoma, 1.00E−5 Molar
Procedure: as §1

[34] = system: MALME-3M; assay: NCI in vitro DTP human cell line screen, MALME-3M; assay type: cell-based; settings: Melanoma, 1.00E−5 Molar
Procedure: as §1

[35] = system: HT29; assay: NCI in vitro DTP human cell line screen, HT29; assay type: cell-based; settings: Colon Cancer, 1.00E−5 Molar
Procedure: as §1

[36] = system: HCT-15; assay: NCI in vitro DTP human cell line screen, HCT-15; assay type: cell-based; settings: Colon Cancer, 1.00E−5 Molar
Procedure: as §1

[37] = system: NCI-H322M; assay: NCI in vitro DTP human cell line screen, NCI-H322M; assay type: cell-based; settings: Non-Small Cell Lung Cancer, 1.00E−5 Molar
Procedure: as §1

[38] = system: SNB-19; assay: NCI in vitro DTP human cell line screen, SNB-19; assay type: cell-based; settings: CNS Cancer, 1.00E−5 Molar
Procedure: as §1

[39] = system: HL-60(TB); assay: NCI in vitro DTP human cell line screen, HL-60(TB); assay type: cell-based; settings: Leukemia, 1.00E−5 Molar
Procedure: as §1

[40] = system: MDA-MB-468; assay: NCI in vitro DTP human cell line screen, MDA-MB-468; assay type: cell-based; settings: Breast Cancer, 1.00E−5 Molar
Procedure: as §1

[41] = system: NCI-H23; assay: NCI in vitro DTP human cell line screen, NCI-H23; assay type: cell-based; settings: Non-Small Cell Lung Cancer, 1.00E−5 Molar
Procedure: as §1

[42] = system: 60 cancer lines; assay: NCI cell toxicity assay of 60 cancer lines, whole panel summary; assay type: cell-based, human; settings: mean over all cell lines; 1.00E−5 Molar
Procedure: as §1

[43] = system: HOP-62; assay: NCI in vitro DTP human cell line screen, HOP-62; assay type: cell-based; settings: Non-Small Cell Lung Cancer, 1.00E−5 Molar
Procedure: as §1

[44] = system: NCI-H522; assay: NCI in vitro DTP human cell line screen, NCI-H522; assay type: cell-based; settings: Non-Small Cell Lung Cancer, 1.00E−5 Molar
Procedure: as §1

[45] = system: MDA-MB-231/ATCC; assay: NCI in vitro DTP human cell line screen, MDA-MB-231/ATCC; assay type: cell-based; settings: Breast Cancer, 1.00E−5 Molar
Procedure: as §1

[46] = system: MCF7; assay: NCI in vitro DTP human cell line screen, MCF7; assay type: cell-based; settings: Breast Cancer, 1.00E−5 Molar
Procedure: as §1

With `COc1ccc(CSc2ccc3c(=O)c4ccccc4sc3c2Cl)cc1` [No. 27, 4-Chloro-3-(4-methoxybenzylthio)-9H-thioxanthen-9-one] the “Growth Percent” value [1] was 95.54%, the “Growth Percent” value [2] was 114.13% and the “Growth Percent” value [3] was 102.18%. For the same molecule, the “Growth Percent” value [4] was 91.61%, the “Growth Percent” value [5] was 102.53% and the “cell viabilities of A3 cell lines (MTT assay)” value [6] was 101 ± 2.95%. The “Growth Percent” value [7] was 84.48%, the “Growth Percent” value [8] was 94.49% and the “Growth Percent” value [9] was 104.27%. The “Growth Percent” value [10] was 96.42%, the “Growth Percent” value [11] was 103.69% and the “Growth Percent” value [12] was 95.58%. For the same molecule, the “Growth Percent” value [13] was 89.83%, the “Growth Percent” value [14] was 107.03% and the “Growth Percent” value [15] was 100.47%. The “cell viabilities of A control cell lines (MTT assay)” value [16] was 50.5%, the “inhibition effect on A control cell line (in words)” value ([16]; summary of MTT cell viabilities) was “inhibition effect” and the “Growth Percent” value [17] was 107.96%. The “Growth Percent” value [18] was 114.01%, the “Growth Percent” value [19] was 105.73% and the “Growth Percent” value [20] was 117.83%. The “Growth Percent” value [21] was 108.05%, the “Growth Percent” value [22] was 114.70% and the “Growth Percent” value [23] was 93.21%. The “Growth Percent” value [24] was 99.12%, the “Growth Percent” value [25] was 78.71% and the viability [26] was 92.4%. The “Growth Percent” value [27] was 106.98%, the “Growth Percent” value [28] was 118.75% and the “Growth Percent” value [29] was 100.46%. The “Growth Percent” value [30] was 107.44%, the “Growth Percent” value [31] was 102.31% and the “Growth Percent” value [32] was 101.32%. The “Growth Percent” value [33] was 101.55%, the “Growth Percent” value [34] was 107.44% and the “Growth Percent” value [35] was 108.69%. The “Growth Percent” value [36] was 104.37%, the “Growth Percent” value [37] was 95.82% and the “Growth Percent” value [38] was 97.16%. The “Growth Percent” value [39] was 121.13%, the “Growth Percent” value [40] was 102.80% and the “Growth Percent” value [41] was 99.92%. For the same molecule, the “Growth Percent, Mean” value [42] was 103.13%, the “Growth Percent” value [43] was 110.61% and the “Growth Percent” value [44] was 94.65%. For the same molecule, the “Growth Percent” value [45] was 96.93% and the “Growth Percent” value [46] was 101.77%.

Reference: US8410161B2, “Thioxanthone ring system derivatives” (National Defense Medical Center, priority 2010, dated 2013)
